≈ marks a conversion by molar mass, not a printed value.
Key:
N. gonorrhoeae WHO Z = assay: Liquid broth MIC in Fastidious broth; conditions: Neisseria gonorrhoeae, read-out: Minimum Inhibitory Concentration, WHO Z
N. gonorrhoeae WHO Q = assay: Liquid broth MIC in Fastidious broth; conditions: Neisseria gonorrhoeae, read-out: Minimum Inhibitory Concentration, WHO Q
N. gonorrhoeae FA1090 = assay: Liquid broth MIC in Fastidious broth; conditions: Neisseria gonorrhoeae, FA1090, read-out: Minimum Inhibitory Concentration, FA 1090
N. gonorrhoeae WHO K = assay: Liquid broth MIC in Fastidious broth; conditions: Neisseria gonorrhoeae, read-out: Minimum Inhibitory Concentration, WHO K
[1] = target: T1, PBP1a from Acinetobacter baumannii (ATCC 19606) (Acinetobacter baumannii, UniProt A0ABX6CK30); assay: Bocillin-FL fluorescence polarization competition binding, A. baumannii PBP1a; conditions: fluorescence polarization competition binding assay using Bocillin-FL; read-out: A. baumannii PBP1a Potency
T1 sequence (A0ABX6CK30 1-851): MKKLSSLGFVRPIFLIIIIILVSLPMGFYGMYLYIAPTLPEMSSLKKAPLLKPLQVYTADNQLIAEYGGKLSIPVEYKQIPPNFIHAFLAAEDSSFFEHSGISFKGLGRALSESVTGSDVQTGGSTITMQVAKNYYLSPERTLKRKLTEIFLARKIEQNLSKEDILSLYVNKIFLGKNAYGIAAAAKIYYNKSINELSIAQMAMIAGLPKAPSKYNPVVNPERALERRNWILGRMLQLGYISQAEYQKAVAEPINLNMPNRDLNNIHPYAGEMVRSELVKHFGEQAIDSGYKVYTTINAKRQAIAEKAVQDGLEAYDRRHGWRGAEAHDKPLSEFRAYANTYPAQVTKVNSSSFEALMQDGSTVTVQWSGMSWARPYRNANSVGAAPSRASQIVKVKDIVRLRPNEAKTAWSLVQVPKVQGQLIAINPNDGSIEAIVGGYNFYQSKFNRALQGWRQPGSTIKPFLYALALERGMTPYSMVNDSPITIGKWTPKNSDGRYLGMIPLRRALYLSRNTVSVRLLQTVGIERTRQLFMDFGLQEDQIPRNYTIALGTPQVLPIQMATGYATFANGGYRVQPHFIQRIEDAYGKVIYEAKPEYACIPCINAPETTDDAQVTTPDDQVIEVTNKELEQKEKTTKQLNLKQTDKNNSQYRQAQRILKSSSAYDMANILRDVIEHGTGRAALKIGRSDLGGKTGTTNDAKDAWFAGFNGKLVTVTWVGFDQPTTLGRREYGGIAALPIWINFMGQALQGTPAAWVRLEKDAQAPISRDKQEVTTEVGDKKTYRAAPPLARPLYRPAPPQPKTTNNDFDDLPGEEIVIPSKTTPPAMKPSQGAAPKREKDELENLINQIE
Method in brief: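 Purified PBP was preincubated with inhibitor (E. coli PBP3 1.5 μM, 30 min; P. aeruginosa PBP3 0.75 μM, A. baumannii PBP3 0.2 μM and PBP1a 1 μM, 15 min), then Bocillin-FL (0.1 μM; 0.05 μM for PBP1a) added and FP read up to 60 min. EC50 = 50% loss of bound probe.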

N. gonorrhoeae WHO X = assay: Liquid broth MIC in Fastidious broth; conditions: Neisseria gonorrhoeae, read-out: Minimum Inhibitory Concentration, WHO X
[2] = tested on: N. gonorrhoeae ATCC 49226; assay: Liquid broth MIC in Fastidious broth; conditions: Neisseria gonorrhoeae, ATCC49226, read-out: Minimum Inhibitory Concentration, ATCC 49226
N. gonorrhoeae WHO L = assay: Liquid broth MIC in Fastidious broth; conditions: Neisseria gonorrhoeae, read-out: Minimum Inhibitory Concentration, WHO L

Compound | MIC (N. gonorrhoeae WHO Z) | MIC (N. gonorrhoeae WHO Q) | MIC (N. gonorrhoeae FA1090) | MIC (N. gonorrhoeae WHO K) | IC50 [1] | MIC (N. gonorrhoeae WHO X) | MIC [2] | MIC (N. gonorrhoeae WHO L)
O=C(NCCCN1CCN(C(=O)N[C@@H](C(=O)N[C@H]2Cc3ccc(F)c(C(=O)O)c3OB2O)c2cc(F)c(O)c(O)c2Cl)C(=O)C1=O)c1ccnc(F)c1F [Example 300, (R)-3-((R)-2-(2-chloro-5-fluoro-3,4-dihydroxyphenyl)-2-(4-(3-(2,3-difluoroisonicotinamido)propyl)-2,3-dioxopiperazine-1-carboxamido)acetamido)-7-fluoro-2-hydroxy-3,4-dihydro-2H-benzo[e][1,2]oxaborinine-8-carboxylic acid] | > 64 µg/mL | > 64 µg/mL | 4 to 8 µg/mL (≈ 5.12 to 10.2 µM) | > 64 µg/mL | > 250 µM | > 64 µg/mL | 16 to 32 µg/mL (≈ 20.5 to 41 µM) | > 64 µg/mL
O=C(NCCCN1CCN(C(=O)NC(C(=O)N[C@H]2Cc3ccc(F)c(C(=O)O)c3OB2O)c2cc(F)c(O)c(O)c2Cl)C(=O)C1=O)c1ccc(O)c(F)c1 (stereo partly drawn) [Example 304, (3R)-3-(2-(2-chloro-5-fluoro-3,4-dihydroxyphenyl)-2-(4-(3-(3-fluoro-4-hydroxybenzamido)propyl)-2,3-dioxopiperazine-1-carboxamido)acetamido)-7-fluoro-2-hydroxy-3,4-dihydro-2H-benzo[e][1,2]oxaborinine-8-carboxylic acid] | > 64 µg/mL | > 64 µg/mL | 1 to 2 µg/mL (≈ 1.29 to 2.57 µM) | > 64 µg/mL | > 250 µM | > 64 µg/mL | 16 to 32 µg/mL (≈ 20.6 to 41.1 µM) | > 64 µg/mL
O=C(NCCCN1CCN(C(=O)N[C@H](C(=O)N[C@H]2Cc3ccc(F)c(C(=O)O)c3OB2O)c2cc(F)c(O)c(O)c2Cl)C(=O)C1=O)c1ccnc(F)c1F [Example 299, (R)-3-((S)-2-(2-chloro-5-fluoro-3,4-dihydroxyphenyl)-2-(4-(3-(2,3-difluoroisonicotinamido)propyl)-2,3-dioxopiperazine-1-carboxamido)acetamido)-7-fluoro-2-hydroxy-3,4-dihydro-2H-benzo[e][1,2]oxaborinine-8-carboxylic acid] | > 64 µg/mL | > 64 µg/mL | 16 to 32 µg/mL (≈ 20.5 to 41 µM) | > 64 µg/mL | > 250 µM | > 64 µg/mL | > 64 µg/mL | > 64 µg/mL
O=C(NCCCN1CCN(C(=O)N[C@H](C(=O)N[C@H]2Cc3ccc(F)c(C(=O)O)c3OB2O)c2cc(F)c(O)c(O)c2Cl)C1=O)Nc1ccc(O)cc1 [Example 283, (R)-3-((S)-2-(2-chloro-5-fluoro-3,4-dihydroxyphenyl)-2-(3-(3-(3-(4-hydroxyphenyl)ureido)propyl)-2-oxoimidazolidine-1-carboxamido)acetamido)-7-fluoro-2-hydroxy-3,4-dihydro-2H-benzo[e][1,2]oxaborinine-8-carboxylic acid] | > 64 µg/mL | > 64 µg/mL | > 64 µg/mL | > 64 µg/mL | > 250 µM | > 64 µg/mL | > 64 µg/mL | > 64 µg/mL
O=C(NCCCS(=O)(=O)N1CCN(C(=O)NC(C(=O)N[C@H]2Cc3ccc(F)c(C(=O)O)c3OB2O)c2cc(F)c(O)c(O)c2Cl)C1=O)Nc1ccncc1 (stereo partly drawn) [Example 291, (3R)-3-(2-(2-chloro-5-fluoro-3,4-dihydroxyphenyl)-2-(2-oxo-3-((3-(3-(pyridin-4-yl)ureido)propyl)sulfonyl)imidazolidine-1-carboxamido)acetamido)-7-fluoro-2-hydroxy-3,4-dihydro-2H-benzo[e][1,2]oxaborinine-8-carboxylic acid] | 4 to 8 µg/mL (≈ 5.03 to 10.1 µM) | 16 to 32 µg/mL (≈ 20.1 to 40.2 µM) | 4 to 8 µg/mL (≈ 5.03 to 10.1 µM) | > 64 µg/mL | > 250 µM | > 64 µg/mL | 16 to 32 µg/mL (≈ 20.1 to 40.2 µM) | > 64 µg/mL
O=C(NCCS(=O)(=O)N1CCN(C(=O)N[C@H](C(=O)N[C@H]2Cc3ccc(F)c(C(=O)O)c3OB2O)c2cc(F)c(O)c(O)c2Cl)C1=O)c1ccc(O)cc1 [Example 286, (R)-3-((S)-2-(2-chloro-5-fluoro-3,4-dihydroxyphenyl)-2-(3-((2-(4-hydroxybenzamido)ethyl)sulfonyl)-2-oxoimidazolidine-1-carboxamido)acetamido)-7-fluoro-2-hydroxy-3,4-dihydro-2H-benzo[e][1,2]oxaborinine-8-carboxylic acid] | > 64 µg/mL | > 64 µg/mL | > 64 µg/mL | > 64 µg/mL | > 250 µM | > 64 µg/mL | > 64 µg/mL | > 64 µg/mL
O=C(NCCCN1CCN(C(=O)N[C@@H](C(=O)N[C@H]2Cc3ccc(F)c(C(=O)O)c3OB2O)c2cc(F)c(O)c(O)c2Cl)C(=O)C1=O)c1ccncc1O [Example 296, (R)-3-((R)-2-(2-chloro-5-fluoro-3,4-dihydroxyphenyl)-2-(4-(3-(3-hydroxyisonicotinamido)propyl)-2,3-dioxopiperazine-1-carboxamido)acetamido)-7-fluoro-2-hydroxy-3,4-dihydro-2H-benzo[e][1,2]oxaborinine-8-carboxylic acid] | > 64 µg/mL | > 64 µg/mL | 1 to 2 µg/mL (≈ 1.31 to 2.63 µM) | > 64 µg/mL | > 250 µM | > 64 µg/mL | 16 to 32 µg/mL (≈ 21 to 42.1 µM) | > 64 µg/mL
O=C(NCCS(=O)(=O)N1CCN(C(=O)NC(C(=O)N[C@H]2Cc3ccc(F)c(C(=O)O)c3OB2O)c2cc(F)c(O)c(O)c2Cl)C1=O)c1ccncc1 (stereo partly drawn) [Example 288, (3R)-3-(2-(2-chloro-5-fluoro-3,4-dihydroxyphenyl)-2-(3-((2-(isonicotinamido)ethyl)sulfonyl)-2-oxoimidazolidine-1-carboxamido)acetamido)-7-fluoro-2-hydroxy-3,4-dihydro-2H-benzo[e][1,2]oxaborinine-8-carboxylic acid] | 4 to 8 µg/mL (≈ 5.22 to 10.4 µM) | 16 to 32 µg/mL (≈ 20.9 to 41.7 µM) | 1 to 2 µg/mL (≈ 1.3 to 2.61 µM) | 16 to 32 µg/mL (≈ 20.9 to 41.7 µM) | > 250 µM | > 64 µg/mL | 16 to 32 µg/mL (≈ 20.9 to 41.7 µM) | > 64 µg/mL
O=C(O)c1c(F)ccc2c1OB(O)[C@@H](NC(=O)C(NC(=O)N1CCN(CC3CCN(C(=O)c4cccc(O)c4)CC3)C(=O)C1=O)c1cc(F)c(O)c(O)c1Cl)C2 (stereo partly drawn) [Example 475, (3R)-3-(2-(2-chloro-5-fluoro-3,4-dihydroxyphenyl)-2-(4-((1-(3-hydroxybenzoyl)piperidin-4-yl)methyl)-2,3-dioxopiperazine-1-carboxamido)acetamido)-7-fluoro-2-hydroxy-3,4-dihydro-2H-benzo[e][1,2]oxaborinine-8-carboxylic acid] |  |  |  |  | > 250 µM |  |  | 
O=C(O)c1c(F)ccc2c1OB(O)[C@@H](NC(=O)C(NC(=O)N1CCN(C3CCN(C(=O)Nc4cccc(O)c4F)CC3)C(=O)C1=O)c1cc(F)c(O)c(O)c1Cl)C2 (stereo partly drawn) [Example 478, (3R)-3-(2-(2-chloro-5-fluoro-3,4-dihydroxyphenyl)-2-(4-(1-((2-fluoro-3-hydroxyphenyl)carbamoyl)piperidin-4-yl)-2,3-dioxopiperazine-1-carboxamido)acetamido)-7-fluoro-2-hydroxy-3,4-dihydro-2H-benzo[e][1,2]oxaborinine-8-carboxylic acid] |  |  |  |  | > 250 µM |  |  | 
O=C(O)c1c(F)ccc2c1OB(O)[C@@H](NC(=O)C(NC(=O)N1CCN(CC3CCN(C(=O)Nc4cccc(O)c4)CC3)C(=O)C1=O)c1cc(F)c(O)c(O)c1Cl)C2 (stereo partly drawn) [Example 477, (3R)-3-(2-(2-chloro-5-fluoro-3,4-dihydroxyphenyl)-2-(4-((1-((3-hydroxyphenyl)carbamoyl)piperidin-4-yl)methyl)-2,3-dioxopiperazine-1-carboxamido)acetamido)-7-fluoro-2-hydroxy-3,4-dihydro-2H-benzo[e][1,2]oxaborinine-8-carboxylic acid] |  |  |  |  | > 250 µM |  |  | 
